In the supplement of paper PMC10627819:

How the values were obtained:
Assay in all cases: fitness (endpoint OD595 vs no drug) (fraction); higher = more growth
[1] = system: S. aureus Newman
Method in brief: (§1)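 Cultures at OD595 0.01 were dispensed into 384-well plates in TSB, LB Lennox or CY and incubated at 37 °C. Every 30 min for 14 h, OD595 was read and corrected by the first reading. Fitness is the optical density at entry into stationary phase relative to the robust mean of no-drug control wells, capped at 1.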

[2] = system: B. subtilis 168
Method in brief: as §1

[3] = system: S. aureus DSM 20231
Method in brief: as §1

[4] = system: S. pneumoniae D39V
Method in brief: as §1

CCC[C@@H]1C[C@@H](C(=O)N[C@@H]([C@H]2O[C@H](SC)[C@H](O)[C@@H](O)[C@H]2O)[C@H](C)Cl)N(C)C1 [Clindamycin] + CC1(C)S[C@@H]2[C@H](NC(=O)Cc3ccccc3)C(=O)N2[C@H]1C(=O)O [Penicillin G]
fitness, [1]
Settings | first compound 0.0312 µg/mL | first compound 0.0625 µg/mL | first compound 0.125 µg/mL
partner 0.0195 µg/mL | 0.639 | 0.416 | 0.0886
partner 0.039 µg/mL | 0.708 | – | 0.0624
partner 0.078 µg/mL | – | – | 0.0543

CCC[C@@H]1C[C@@H](C(=O)N[C@@H]([C@H]2O[C@H](SC)[C@H](O)[C@@H](O)[C@H]2O)[C@H](C)Cl)N(C)C1 [Clindamycin] + CN(C)[C@@H]1C(O)=C(C(N)=O)C(=O)[C@@]2(O)C(O)=C3C(=O)c4c(O)ccc(Cl)c4[C@@](C)(O)[C@H]3C[C@@H]12 [Chlortetracycline]
fitness, one replicate
Settings | first compound 0.0039 µg/mL | first compound 0.0078 µg/mL | first compound 0.0156 µg/mL | first compound 0.0312 µg/mL | first compound 0.0625 µg/mL | first compound 0.125 µg/mL
[2], partner 0.0475 µg/mL | 0.996 | 0.88 | 0.814 | – | – | –
[2], partner 0.095 µg/mL | 0.911 | 0.831 | 0.721 | – | – | –
[2], partner 0.19 µg/mL | 0.779 | 0.697 | 0.633 | – | – | –
[3], partner 0.006 µg/mL | – | – | – | 0.198 | 0.0507 | 0.029

Settings | fitness
[2], first compound 0.0625 µg/mL, partner 0.0475 µg/mL | 0.407
[2], first compound 0.0625 µg/mL, partner 0.095 µg/mL | 0.362
[2], first compound 0.0625 µg/mL, partner 0.19 µg/mL | 0.0596
[2], first compound 0.125 µg/mL, partner 0.0475 µg/mL | 0.352
[2], first compound 0.125 µg/mL, partner 0.095 µg/mL | 0.0555
[2], first compound 0.125 µg/mL, partner 0.19 µg/mL | 0.0594
[2], first compound 0.25 µg/mL, partner 0.0475 µg/mL | 0.0818
[2], first compound 0.25 µg/mL, partner 0.095 µg/mL | 0.0386
[2], first compound 0.25 µg/mL, partner 0.19 µg/mL | 0.0515
[3], first compound 0.0312 µg/mL, partner 0.012 µg/mL | 0.0617
[3], first compound 0.0312 µg/mL, partner 0.024 µg/mL | 0.038
[3], first compound 0.0312 µg/mL, partner 0.048 µg/mL | 0.0237
[3], first compound 0.0625 µg/mL, partner 0.012 µg/mL | 0.032
[3], first compound 0.0625 µg/mL, partner 0.024 µg/mL | 0.0211
[3], first compound 0.0625 µg/mL, partner 0.048 µg/mL | 0.0234
[3], first compound 0.125 µg/mL, partner 0.012 µg/mL | 0.0303
[3], first compound 0.125 µg/mL, partner 0.024 µg/mL | 0.0207
[3], first compound 0.125 µg/mL, partner 0.048 µg/mL | 0.0343
[4], first compound 0.0125 µg/mL, partner 0.012 µg/mL | 0.511
[4], first compound 0.0125 µg/mL, partner 0.024 µg/mL | 0.383
[4], first compound 0.0125 µg/mL, partner 0.048 µg/mL | 0.205
[4], first compound 0.015 µg/mL, partner 0.375 µg/mL | 0.0214
[4], first compound 0.015 µg/mL, partner 0.75 µg/mL | 0.0514
[4], first compound 0.015 µg/mL, partner 1.5 µg/mL | 0.0726
[4], first compound 0.025 µg/mL, partner 0.012 µg/mL | 0.334
[4], first compound 0.025 µg/mL, partner 0.024 µg/mL | 0.216
[4], first compound 0.025 µg/mL, partner 0.048 µg/mL | 0.122
[4], first compound 0.03 µg/mL, partner 0.375 µg/mL | 0.0643
[4], first compound 0.03 µg/mL, partner 0.75 µg/mL | 0.0687
[4], first compound 0.03 µg/mL, partner 1.5 µg/mL | 0.0605
[4], first compound 0.05 µg/mL, partner 0.012 µg/mL | 0.128
[4], first compound 0.05 µg/mL, partner 0.024 µg/mL | 0.13
[4], first compound 0.05 µg/mL, partner 0.048 µg/mL | 0.146
[4], first compound 0.06 µg/mL, partner 0.375 µg/mL | 0.0503
[4], first compound 0.06 µg/mL, partner 0.75 µg/mL | 0.0714
[4], first compound 0.06 µg/mL, partner 1.5 µg/mL | 0.0678

O=C(O[C@@H]1Cc2c(O)cc(O)cc2O[C@@H]1c1cc(O)c(O)c(O)c1)c1cc(O)c(O)c(O)c1 [EGCG] + CC1(C)S[C@@H]2[C@H](NC(=O)Cc3ccccc3)C(=O)N2[C@H]1C(=O)O [Penicillin G]
fitness, [1]
Settings | first compound 12.5 µg/mL | first compound 25 µg/mL | first compound 50 µg/mL
partner 0.0195 µg/mL | 0.738 | 0.623 | –
partner 0.039 µg/mL | 0.743 | 0.739 | 0.594
partner 0.078 µg/mL | 0.741 | 0.729 | 0.644

C/C(=C\C(=O)OCCCCCCCCC(=O)O)C[C@@H]1OC[C@H](C[C@@H]2O[C@H]2[C@@H](C)[C@H](C)O)[C@@H](O)[C@H]1O [Pseudomonic acid] + Cc1onc(-c2ccccc2)c1C(=O)N[C@@H]1C(=O)N2[C@@H]1SC(C)(C)[C@@H]2C(=O)O [Oxacillin]
fitness, [1], one replicate
Settings | first compound 0.0313 µg/mL | first compound 0.0625 µg/mL | first compound 0.125 µg/mL
partner 0.0156 µg/mL | 0.058 | 0.0445 | 0.0455
partner 0.0312 µg/mL | 0.0524 | 0.0435 | 0.0505
partner 0.0625 µg/mL | 0.0522 | 0.0224 | 0.0295

fitness, [4]
Settings | first compound 0.03 µg/mL | first compound 0.06 µg/mL | first compound 0.12 µg/mL
partner 0.01 µg/mL | 0.948 | 0.835 | 0.589
partner 0.02 µg/mL | 0.95 | 0.819 | 0.562
partner 0.04 µg/mL | – | 0.717 | 0.424

N[C@@H]1CONC1=O [Cycloserine D] + COc1cc(Cc2cnc(N)nc2N)cc(OC)c1OC [Trimethoprim]
fitness, [2], one replicate
Settings | partner 0.1 µg/mL | partner 0.2 µg/mL | partner 0.4 µg/mL | partner 1 µg/mL | partner 2 µg/mL
first compound 0.125 µg/mL | 0.917 | 0.789 | 0.584 | 0.344 | 0.268
first compound 0.25 µg/mL | 0.849 | 0.757 | 0.56 | 0.323 | 0.243
first compound 0.5 µg/mL | 0.986 | 0.818 | 0.533 | 0.358 | 0.234

fitness
Settings | partner 0.125 µg/mL | partner 0.25 µg/mL | partner 0.5 µg/mL | partner 1 µg/mL
[2], first compound 0.125 µg/mL | 0.635 | 0.501 | 0.475 | –
[2], first compound 0.25 µg/mL | 0.664 | – | 0.48 | –
[2], first compound 0.5 µg/mL | 0.664 | – | 0.511 | –
[3], first compound 0.375 µg/mL | 0.758 | – | – | 0.0316
[3], first compound 0.75 µg/mL | 0.807 | 0.61 | – | 0.0296
[3], first compound 1.5 µg/mL | 0.804 | 0.569 | – | 0.0385

N[C@@H]1CONC1=O [Cycloserine D] + CC(C1CCC(C(O1)OC2C(CC(C(C2O)OC3C(C(C(CO3)(C)O)NC)O)N)N)N)NC [Gentamicin]
main component drawn
Settings | fitness
[1], first compound 0.375 µg/mL, partner 0.375 µg/mL | 0.986
[1], first compound 0.375 µg/mL, partner 0.5 µg/mL | 0.923
[1], first compound 0.375 µg/mL, partner 0.75 µg/mL | 0.974
[1], first compound 0.375 µg/mL, partner 1 µg/mL | ≥ 1
[1], first compound 0.375 µg/mL, partner 1.5 µg/mL | 0.955
[1], first compound 0.375 µg/mL, partner 2 µg/mL | ≥ 1
[1], first compound 0.75 µg/mL, partner 0.375 µg/mL | ≥ 1
[1], first compound 0.75 µg/mL, partner 0.5 µg/mL | 0.921
[1], first compound 0.75 µg/mL, partner 0.75 µg/mL | ≥ 1
[1], first compound 0.75 µg/mL, partner 1 µg/mL | ≥ 1
[1], first compound 0.75 µg/mL, partner 2 µg/mL | ≥ 1
[1], first compound 1.5 µg/mL, partner 0.375 µg/mL | 1
[1], first compound 1.5 µg/mL, partner 0.5 µg/mL | 0.952
[1], first compound 1.5 µg/mL, partner 0.75 µg/mL | ≥ 1
[1], first compound 1.5 µg/mL, partner 1 µg/mL | ≥ 1
[1], first compound 1.5 µg/mL, partner 2 µg/mL | ≥ 1
[2], first compound 0.125 µg/mL, partner 0.0625 µg/mL | 0.964
[2], first compound 0.125 µg/mL, partner 0.25 µg/mL | 0.102
[2], first compound 0.25 µg/mL, partner 0.0625 µg/mL | 0.943
[2], first compound 0.25 µg/mL, partner 0.25 µg/mL | 0.0775
[2], first compound 0.5 µg/mL, partner 0.0625 µg/mL | 0.914
[2], first compound 0.5 µg/mL, partner 0.25 µg/mL | 0.0653
